Test results taken from US12059422B2 (MEI Pharma, Inc., priority 2011, dated 2024).

Key:
PI3Kα = PI3Kα (Homo sapiens, UniProt P42336); test: ELISA assay for PI3Kα: in-cell ELISA, phosphorylation of AKT (Thr308) in MDA-MB-453 cells; format: cell-based; details: cellular, pAKT (Thr308), IGF-1 stimulation, read-out: IC50 p110α
Procedure: PI3K alpha (PI3Kα) activity was determined by measuring the phosphorylation of AKT (Thr308) using an in-cell ELISA assay. MDA-MB-453 (breast carcinoma) cells were obtained from ATCC (ATCC #HTB-131). Growth medium was DMEM (CellGro #CV-10-013-CV) supplemented with 10% fetal bovine serum, 100 IU/mL penicillin, 100 μg/mL streptomycin, and 1×MEM non-essential amino acids. Phosphate buffered saline (PBS) contained 2.7 M NaCl, 54 mM KCl, 86 mM […] (dibasic, anhydrous), and 28 mM […] (monobasic, anhydrous) at pH 7.2. Stimulation mixture (10×) was 1000 ng/mL LONG® R^3 human IGF-1 (Sigma #I1271) diluted in serum-free DMEM medium (CellGro #CV-10-013-CV). Compounds for testing were dissolved and serially diluted in 100% DMSO (total of 10 concentrations), then diluted in serum-free DMEM to 2× final assay concentration. Fixative solution (2×) was 8% formaldehyde (Amresco #M134) diluted in PBS. Permeabilization solution was PBS supplemented with 0.1% Triton X-100. Blocking buffer was obtained from LiCor (LiCor #927-40000). Wash buffer was PBS supplemented with 0.1% Tween-20. Primary antibody solution was rabbit anti-pAKT^T308 monoclonal antibody (Cell Signaling #2965) and mouse anti-total S6 (Santa Cruz #74459) diluted 1:500 and 1:2000, respectively, in the blocking buffer. Secondary antibody solution was IRDye 800CW-conjugated goat anti-rabbit IgG (LiCor #926-32211) and IRDye 680LT-conjugated goat anti-mouse IgG (LiCor #926-68020) diluted 1:1000 and 1:2000, respectively, in the blocking buffer.
MDA-MB-453 cells were subcultured in growth medium and seeded into flat, clear bottom, 96-well plates (Corning #3904) at 40000 cells/well, then incubated overnight in a 5% CO2 incubator at 37° C. Growth medium in plates was replaced with 100 μL/well serum-free DMEM and incubated overnight at 37° C. in a 5% CO2 incubator. Fresh serum-free DMEM (50 μL/well) was added to plates. Compound treatment was performed by adding 50 μL/well of 2× compound mixture to plates and incubating for 1 hr at 37° C. and 5% CO2, after which 11 μL/well of 10× stimulation mixture was added and plates were incubated for 10 min at 37° C. and 5% CO2. Fixation was performed by adding 110 μL/well of 2× fixative solution to the plates and incubating for 20 min at room temperature. Permeabilization was performed by replacing fixation solution with 150 μL/well permeabilization solution and incubating for 10 min at room temperature. Permeabilization was repeated (for a total of 2 times). Permeabilization solution was replaced with 100 μL/well blocking buffer and plates were incubated for 1 hour at room temperature, after which 100 μL/well of primary antibody solution was added and plates were incubated overnight at 4° C. Plates were washed with wash buffer, after which 100 μL/well of secondary antibody solution was added to the plates and incubated in the dark for 1 hr at room temperature. Plates were washed with wash buffer, followed by a wash with PBS. After completely removing PBS, plates were scanned on the Licor Odyssey Imager. Images were quantified using Licor Odyssey application software. IC50 values were determined by curve fitting using a Collaborative Drug Discovery database (www.collaborativedrug.com).

PI3K gamma = target: T1, PI3K gamma (Homo sapiens, UniProt P48736); test: Luciferase-based luminescence assay (ADP Glo), PI3K gamma enzymatic activity; format: biochemical; details: inhibition of enzymatic activity, 25 μM ATP, read-out: IC50 p110γ
T1 construct: purchased Invitrogen Corp., Carlsbad, CA, USA
Procedure: PI3K catalyzes the conversion of phosphatidylinositol-4,5-bisphosphate (PIP2) and ATP to phosphatidylinositol-3,4,5-trisphosphate (PIP3) and ADP. For all assays, the reaction buffer comprised 50 mM HEPES, pH 7.5, 3 mM MgCl2, 1 mM EGTA, 100 mM NaCl, 0.03% CHAPS and 2 mM DTT. Compounds for testing were dissolved and serially diluted in 100% DMSO (total of 10 concentrations), then diluted 1:25 in reaction buffer.
PI3K beta and gamma enzymatic activity was determined by measuring the amount of ADP produced following the kinase reaction using a luciferase-based luminescence assay (ADP Glo®, Promega Corp., Madison, WI, USA). PI3K enzyme solutions were prepared by diluting PI3K beta (Millipore, Billerica, MA, USA) or PI3K gamma (Invitrogen Corp., Carlsbad, CA, USA) in reaction buffer, to 4× the final assay concentration (final concentrations of enzymes were 4.8 nM and 7.6 nM for PI3K beta and PI3K gamma respectively). A substrate solution was prepared by mixing PIP2 and ATP in reaction buffer at 2× the final assay concentration (final concentrations were 50 μM and 25 μM for PIP2 and ATP respectively). 2.5 μL each of the compound and kinase mixtures were added to individual wells of white low volume 384-well assay plates and mixed by shaking. The reactions were started by adding 5 μL of substrate mixture per well and shaking. The assay plates were covered and reactions were allowed to proceed for 1 hour. Then, 5 μL of reaction mix was transferred to another white low volume 384-well plate, and 5 μL of ADP-Glo™ reagent was added. The plates were briefly centrifuged and incubated for 40 minutes, after which 10 μL of kinase detection buffer was added. The plates then were centrifuged briefly, shaken slowly and equilibrated at room temperature for 30 minutes, after which luminescence was measured using a FlexStation plate reader (Molecular Devices, Sunnyvale, CA, USA). IC50 values were determined by curve fitting using Graphpad Prism software (Graphpad Software, La Jolla, CA, USA).

T1 sequence (P48736 whole entry, species assumed): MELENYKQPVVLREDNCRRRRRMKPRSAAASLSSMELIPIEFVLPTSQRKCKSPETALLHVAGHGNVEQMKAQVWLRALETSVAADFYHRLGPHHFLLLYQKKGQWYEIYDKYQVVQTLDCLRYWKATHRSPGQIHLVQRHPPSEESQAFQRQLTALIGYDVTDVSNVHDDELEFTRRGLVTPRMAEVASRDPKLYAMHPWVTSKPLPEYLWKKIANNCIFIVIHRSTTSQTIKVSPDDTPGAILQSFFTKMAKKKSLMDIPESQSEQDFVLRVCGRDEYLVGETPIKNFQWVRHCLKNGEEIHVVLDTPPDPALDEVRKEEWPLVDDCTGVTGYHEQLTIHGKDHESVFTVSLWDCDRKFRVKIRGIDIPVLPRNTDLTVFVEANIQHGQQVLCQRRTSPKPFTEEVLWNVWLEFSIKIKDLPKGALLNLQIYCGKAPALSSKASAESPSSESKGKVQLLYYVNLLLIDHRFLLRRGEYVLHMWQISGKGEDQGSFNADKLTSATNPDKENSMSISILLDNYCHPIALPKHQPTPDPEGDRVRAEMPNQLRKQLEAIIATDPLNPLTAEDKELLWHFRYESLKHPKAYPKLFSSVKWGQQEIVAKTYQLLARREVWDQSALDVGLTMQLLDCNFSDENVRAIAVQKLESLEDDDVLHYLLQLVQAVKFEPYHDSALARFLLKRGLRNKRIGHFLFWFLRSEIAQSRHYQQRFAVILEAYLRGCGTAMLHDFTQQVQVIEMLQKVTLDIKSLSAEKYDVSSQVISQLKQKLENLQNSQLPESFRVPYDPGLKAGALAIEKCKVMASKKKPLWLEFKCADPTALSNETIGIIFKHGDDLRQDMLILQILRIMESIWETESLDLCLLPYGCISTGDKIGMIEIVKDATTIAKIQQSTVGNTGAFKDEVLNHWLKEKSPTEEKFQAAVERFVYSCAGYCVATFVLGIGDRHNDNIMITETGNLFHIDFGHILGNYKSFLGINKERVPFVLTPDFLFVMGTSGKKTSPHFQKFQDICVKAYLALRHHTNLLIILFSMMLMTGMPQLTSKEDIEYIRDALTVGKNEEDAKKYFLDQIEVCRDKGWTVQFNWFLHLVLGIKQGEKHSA
Chain of PI3Kα (P27986 2-724): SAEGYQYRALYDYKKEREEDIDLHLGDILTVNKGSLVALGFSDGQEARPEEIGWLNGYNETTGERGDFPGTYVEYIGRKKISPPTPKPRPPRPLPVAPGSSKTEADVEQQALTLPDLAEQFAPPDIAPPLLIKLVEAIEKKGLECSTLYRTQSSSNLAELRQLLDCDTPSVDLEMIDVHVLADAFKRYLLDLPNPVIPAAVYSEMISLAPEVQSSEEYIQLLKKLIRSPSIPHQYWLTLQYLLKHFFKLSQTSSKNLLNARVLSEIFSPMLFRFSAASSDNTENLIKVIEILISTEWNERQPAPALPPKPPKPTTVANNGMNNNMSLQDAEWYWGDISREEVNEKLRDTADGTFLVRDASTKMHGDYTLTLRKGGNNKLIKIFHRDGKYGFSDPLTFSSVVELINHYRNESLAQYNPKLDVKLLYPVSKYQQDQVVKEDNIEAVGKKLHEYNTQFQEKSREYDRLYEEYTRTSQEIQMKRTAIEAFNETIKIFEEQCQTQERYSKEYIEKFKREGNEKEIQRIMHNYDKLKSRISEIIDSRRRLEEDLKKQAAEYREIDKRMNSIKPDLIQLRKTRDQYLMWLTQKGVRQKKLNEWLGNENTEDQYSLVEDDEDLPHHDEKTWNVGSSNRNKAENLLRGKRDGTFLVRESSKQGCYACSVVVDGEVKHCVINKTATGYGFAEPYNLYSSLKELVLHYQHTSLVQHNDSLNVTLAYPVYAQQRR
Chain of PI3Kα (P42336 whole entry): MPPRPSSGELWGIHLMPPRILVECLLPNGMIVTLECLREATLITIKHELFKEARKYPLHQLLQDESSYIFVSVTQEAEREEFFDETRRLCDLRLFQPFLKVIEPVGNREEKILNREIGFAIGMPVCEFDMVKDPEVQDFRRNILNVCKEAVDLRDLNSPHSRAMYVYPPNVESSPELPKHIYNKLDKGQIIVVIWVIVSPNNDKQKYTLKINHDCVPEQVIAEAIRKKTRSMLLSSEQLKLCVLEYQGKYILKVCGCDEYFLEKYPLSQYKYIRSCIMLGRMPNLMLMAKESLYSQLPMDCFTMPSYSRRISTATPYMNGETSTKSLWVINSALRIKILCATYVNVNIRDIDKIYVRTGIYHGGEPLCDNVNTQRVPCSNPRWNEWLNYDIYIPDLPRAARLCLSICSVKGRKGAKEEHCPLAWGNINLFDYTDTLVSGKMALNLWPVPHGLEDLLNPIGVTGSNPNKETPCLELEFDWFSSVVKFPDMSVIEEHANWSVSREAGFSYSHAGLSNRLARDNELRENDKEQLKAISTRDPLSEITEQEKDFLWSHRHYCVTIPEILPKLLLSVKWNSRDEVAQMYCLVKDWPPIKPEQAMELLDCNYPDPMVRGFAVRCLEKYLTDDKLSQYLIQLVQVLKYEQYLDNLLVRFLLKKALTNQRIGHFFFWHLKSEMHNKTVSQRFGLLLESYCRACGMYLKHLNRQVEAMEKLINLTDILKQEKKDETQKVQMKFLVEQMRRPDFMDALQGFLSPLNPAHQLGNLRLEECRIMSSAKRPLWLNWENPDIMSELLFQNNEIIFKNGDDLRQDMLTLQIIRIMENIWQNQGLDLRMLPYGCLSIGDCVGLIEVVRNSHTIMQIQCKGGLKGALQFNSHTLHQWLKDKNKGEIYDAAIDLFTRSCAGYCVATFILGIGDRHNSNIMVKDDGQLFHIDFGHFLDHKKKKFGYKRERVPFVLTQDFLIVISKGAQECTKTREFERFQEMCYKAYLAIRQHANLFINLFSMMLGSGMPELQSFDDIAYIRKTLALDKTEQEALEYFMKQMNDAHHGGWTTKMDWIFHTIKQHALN

Structure (SMILES)	IC50 (PI3Kα) [µM]	IC50 (PI3K gamma) [µM]
CC(C)(Cc1ccccc1Cl)Nc1nc(N2CCOCC2)nc(-n2c(C(F)F)nc3ccccc32)n1 [Compound A16, 4-(2-(difluoromethyl)-1H-benzo[d]imidazol-1-yl)-N-(1-(2-chlorophenyl)-2-methylpropan-2-yl)-6-morpholino-1,3,5-triazin-2-amine]	> 0.5	0.2 to 0.5
CN(C)CCCc1ccccc1CC(C)(C)Nc1nc(N2CCOCC2)nc(-n2c(C(F)F)nc3ccccc32)n1 [Compound A76, 4-(2-(difluoromethyl)-1H-benzo[d]imidazol-1-yl)-N-(1-(2-(3-(dimethylamino)propyl)phenyl)-2-methylpropan-2-yl)-6-morpholino-1,3,5-triazin-2-amine]	> 0.5	> 0.5
CC(C)(Cc1ccccc1F)Nc1nc(N2CCOCC2)nc(-n2c(C(F)F)nc3ccccc32)n1 [Compound A15, 4-(2-(difluoromethyl)-1H-benzo[d]imidazol-1-yl)-N-(1-(2-fluorophenyl)-2-methylpropan-2-yl)-6-morpholino-1,3,5-triazin-2-amine]	> 0.5	> 0.5
COc1cc(CC(C)(C)Nc2nc(N3CCOCC3)nc(-n3c(C(F)F)nc4ccccc43)n2)ccc1F [Compound A50, 4-(2-(difluoromethyl)-1H-benzo[d]imidazol-1-yl)-N-(1-(4-fluoro-3-methoxyphenyl)-2-methylpropan-2-yl)-6-morpholino-1,3,5-triazin-2-amine]	> 0.5	> 0.5
CC(C)(Cc1ccccc1-c1cccnc1F)Nc1nc(N2CCOCC2)nc(-n2c(C(F)F)nc3ccccc32)n1 [Compound A62]	> 0.5	> 0.5
COc1cccc(-c2ccccc2CC(C)(C)Nc2nc(N3CCOCC3)nc(-n3c(C(F)F)nc4ccccc43)n2)c1 [Compound A66, 4-(2-(difluoromethyl)-1H-benzo[d]imidazol-1-yl)-N-(1-(3′-methoxybiphenyl-2-yl)-2-methylpropan-2-yl)-6-morpholino-1,3,5-triazin-2-amine]	> 0.5	> 0.5
Cc1ccccc1CC(C)(C)Nc1nc(N2CCOCC2)nc(-n2c(C(F)F)nc3ccccc32)n1 [Compound A18, 4-(2-(difluoromethyl)-1H-benzo[d]imidazol-1-yl)-N-(2-methyl-1-(o-tolyl)propan-2-yl)-6-morpholino-1,3,5-triazin-2-amine]	> 0.5	0.2 to 0.5
CC(C)(Cc1ccccc1-c1ccccc1Cl)Nc1nc(N2CCOCC2)nc(-n2c(C(F)F)nc3ccccc32)n1 [Compound A61, 4-(2-(difluoromethyl)-1H-benzo[d]imidazol-1-yl)-N-(1-(6′-chlorobiphenyl-2-yl)-2-methylpropan-2-yl)-6-morpholino-1,3,5-triazin-2-amine]	> 0.5	> 0.5
CCN1CCC(c2ccccc2CC(C)(C)Nc2nc(N3CCOCC3)nc(-n3c(C(F)F)nc4ccccc43)n2)CC1 [Compound A70, 4-(2-(difluoromethyl)-1H-benzo[d]imidazol-1-yl)-N-(1-(2-(1-ethylpiperidin-4-yl)phenyl)-2-methylpropan-2-yl)-6-morpholino-1,3,5-triazin-2-amine]	> 0.5	> 0.5
Cc1ccccc1-c1ccccc1CC(C)(C)Nc1nc(N2CCOCC2)nc(-n2c(C(F)F)nc3ccccc32)n1 [Compound A60, 4-(2-(difluoromethyl)-1H-benzo[d]imidazol-1-yl)-N-(2-methyl-1-(2′-methylbiphenyl-2-yl)propan-2-yl)-6-morpholino-1,3,5-triazin-2-amine]	> 0.5	> 0.5
CC(C)(Cc1ccccc1C1CCN(S(C)(=O)=O)CC1)Nc1nc(N2CCOCC2)nc(-n2c(C(F)F)nc3ccccc32)n1 [Compound A73, 4-(2-(difluoromethyl)-1H-benzo[d]imidazol-1-yl)-N-(2-methyl-1-(2-(1-(methylsulfonyl)piperidin-4-yl)phenyl)propan-2-yl)-6-morpholino-1,3,5-triazin-2-amine]	0.2 to 0.5	0.1 to 0.2
CC(C)(Cc1ccccc1-c1ccncc1)Nc1nc(N2CCOCC2)nc(-n2c(C(F)F)nc3ccccc32)n1 [Compound A33, 4-(2-(difluoromethyl)-1H-benzo[d]imidazol-1-yl)-N-(2-methyl-1-(2-(pyridin-4-yl)phenyl)propan-2-yl)-6-morpholino-1,3,5-triazin-2-amine]		0.2 to 0.5
COc1cccc(CC(C)(C)Nc2nc(N3CCOCC3)nc(-n3c(C(F)F)nc4ccccc43)n2)c1 [Compound A21, 4-(2-(difluoromethyl)-1H-benzo[d]imidazol-1-yl)-N-(1-(3-methoxyphenyl)-2-methylpropan-2-yl)-6-morpholino-1,3,5-triazin-2-amine]	> 0.5	> 0.5
CC(C)(Cc1ccc(F)cc1)Nc1nc(N2CCOCC2)nc(-n2c(C(F)F)nc3ccccc32)n1 [Compound A22, 4-(2-(difluoromethyl)-1H-benzo[d]imidazol-1-yl)-N-(1-(4-fluorophenyl)-2-methylpropan-2-yl)-6-morpholino-1,3,5-triazin-2-amine]	> 0.5	0.2 to 0.5
CN1CCC(c2ccccc2CC(C)(C)Nc2nc(N3CCOCC3)nc(-n3c(C(F)F)nc4ccccc43)n2)CC1 [Compound A35, 4-(2-(difluoromethyl)-1H-benzo[d]imidazol-1-yl)-N-(2-methyl-1-(2-(1-methylpiperidin-4-yl)phenyl)propan-2-yl)-6-morpholino-1,3,5-triazin-2-amine]	> 0.5	> 0.5
CN1CCC(c2ccccc2CC(C)(C)Nc2nc(N3CCOCC3)nc(-n3c(C(F)F)nc4ccccc43)n2)C1 (centres unmarked) [Compound A75, 4-(2-(difluoromethyl)-1H-benzo[d]imidazol-1-yl)-N-(2-methyl-1-(2-(1-methylpyrrolidin-3-yl)phenyl)propan-2-yl)-6-morpholino-1,3,5-triazin-2-amine]	> 0.5	
CC(C)(Cc1cccc2ccccc12)Nc1nc(N2CCOCC2)nc(-n2c(C(F)F)nc3ccccc32)n1 [Compound A27, 4-(2-(difluoromethyl)-1H-benzo[d]imidazol-1-yl)-N-(2-methyl-1-(naphthalen-1-yl)propan-2-yl)-6-morpholino-1,3,5-triazin-2-amine]		≤ 0.1
COc1ccccc1CC(C)(C)Nc1nc(N2CCOCC2)nc(-n2c(C(F)F)nc3ccccc32)n1 [Compound A19, 4-(2-(difluoromethyl)-1H-benzo[d]imidazol-1-yl)-N-(1-(2-methoxyphenyl)-2-methylpropan-2-yl)-6-morpholino-1,3,5-triazin-2-amine]		0.2 to 0.5
